Experimental data published in US20060069132A1, “Azolecarboxamide herbicides” (priority 2004, published 2006).

What was measured:
barnyardgrass [1] = experiment: Test B pre-/postemergence herbicide test; format: in vivo, Echinochloa crus-galli; details: for Plant response rating, Barnyardgrass: preemergence; for Barnyardgrass plant response rating: postemergence, visual rating, scale 0 (no effect) to 100 (complete control)
How it was run: (§1)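 Greenhouse pot assay with simultaneous preemergence (treated seed) and postemergence (2–18 cm seedlings) applications of surfactant-containing, non-phytotoxic solvent formulations. Response scored visually 13–15 days later on a 0–100 scale, 100 meaning complete control.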

Surinam grass = experiment: Test B pre-/postemergence herbicide test; format: in vivo, Urochloa decumbens; details: for Plant response rating, Surinam Grass: preemergence; for Surinam Grass plant response rating: postemergence, visual rating, scale 0 (no effect) to 100 (complete control)
How it was run: as §1

cocklebur = experiment: Test B pre-/postemergence herbicide test; format: in vivo, Xanthium strumarium; details: for Plant response rating, Cocklebur: preemergence; for Cocklebur plant response rating: postemergence, visual rating, scale 0 (no effect) to 100 (complete control)
How it was run: as §1

large crabgrass = experiment: Test B pre-/postemergence herbicide test; format: in vivo, Digitaria sanguinalis; details: for Plant response rating, Crabgrass, Large: preemergence; for Crabgrass, Large plant response rating: postemergence, visual rating, scale 0 (no effect) to 100 (complete control)
How it was run: as §1

giant foxtail = experiment: Test B pre-/postemergence herbicide test; format: in vivo, Setaria faberi; details: for Plant response rating, Foxtail, Giant: preemergence; for Foxtail, Giant plant response rating: postemergence, visual rating, scale 0 (no effect) to 100 (complete control)
How it was run: as §1

lambsquarters = experiment: Test B pre-/postemergence herbicide test; format: in vivo, Chenopodium album; details: for Plant response rating, Lambsquarters: preemergence; for Lambsquarters plant response rating: postemergence, visual rating, scale 0 (no effect) to 100 (complete control)
How it was run: as §1

morningglory = experiment: Test B pre-/postemergence herbicide test; format: in vivo, Ipomoea coccinea; details: for Plant response rating, Morningglory: preemergence; for Morningglory plant response rating: postemergence, visual rating, scale 0 (no effect) to 100 (complete control)
How it was run: as §1

pigweed = experiment: Test B pre-/postemergence herbicide test; format: in vivo, Amaranthus retroflexus; details: for Plant response rating, Pigweed: preemergence; for Pigweed plant response rating: postemergence, visual rating, scale 0 (no effect) to 100 (complete control)
How it was run: as §1

velvetleaf = experiment: Test B pre-/postemergence herbicide test; format: in vivo, Abutilon theophrasti; details: for Plant response rating, Velvetleaf: preemergence; for Velvetleaf plant response rating: postemergence, visual rating, scale 0 (no effect) to 100 (complete control)
How it was run: as §1

blackgrass = experiment: Test B postemergence herbicide test; format: in vivo, Alopecurus myosuroides; details: postemergence, visual rating, scale 0 (no effect) to 100 (complete control)
How it was run: (§2)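 Greenhouse test; postemergence application to plants at 1–4 leaves (2–18 cm); paddy species at 2 leaves; evaluated visually vs controls at 13–15 days; scale 0–100 (100 = complete control).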

wheat = experiment: Test B postemergence herbicide test; format: in vivo, Triticum aestivum; design: key to Wheat plant response rating: 0 = no effect, 100 = complete control; details: postemergence, visual rating, scale 0 (no effect) to 100 (complete control)
How it was run: (§3)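 Each value is a visual 0–100 response rating taken against controls 13 to 15 days after treatment in the greenhouse. Plants received formulated chemical postemergence at the 1- to 4-leaf stage or, in flooded paddy, at the 2-leaf stage.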

wild oat = experiment: Test B postemergence herbicide test; format: in vivo, Avena fatua; details: postemergence, visual rating, scale 0 (no effect) to 100 (complete control)
How it was run: as §3

rice = experiment: Test B flooded paddy test; format: in vivo, Oryza sativa; details: 1000 g ai/ha, visual rating, scale 0 to 100 (0 no effect, 100 complete control), 13 to 15 days
How it was run: as §2

[2] = system: small flower umbrella sedge; experiment: Test B flooded paddy test; format: in vivo, Cyperus difformis; details: 1000 g ai/ha, visual rating, scale 0 to 100 (0 no effect, 100 complete control), 13 to 15 days
How it was run: as §2

barnyardgrass [3] = experiment: Test B flooded paddy test; format: in vivo, Echinochloa crus-galli; details: 1000 g ai/ha, visual rating, scale 0 to 100 (0 no effect, 100 complete control), 13 to 15 days
How it was run: as §2

[4] = 500 g ai/ha, visual rating 0-100, 0 no effect, 100 complete control
[5] = 125 g ai/ha, 0 to 100 scale, 0 is no effect, 100 is complete control

Structure (SMILES): CCCCOc1cccc(NC(=O)c2cc(C(C)(C)C)nn2CC)c1 [Compound 137]
- Plant response rating, Barnyardgrass (barnyardgrass [1]; [4]): 70
- Barnyardgrass plant response rating (barnyardgrass [1]; 125 g ai/ha): 30
- Barnyardgrass plant response rating (barnyardgrass [1]; 500 g ai/ha): 40
- Plant response rating, Barnyardgrass (barnyardgrass [1]; [5]): 10
- Plant response rating, Surinam Grass (Surinam grass; [4]): 80
- Surinam Grass plant response rating (Surinam grass; 125 g ai/ha): 20
- Surinam Grass plant response rating (Surinam grass; 500 g ai/ha): 70
- Plant response rating, Surinam Grass (Surinam grass; [5]): 20
- Plant response rating, Cocklebur (cocklebur; [4]): 0
- Cocklebur plant response rating (cocklebur; 125 g ai/ha): 50
- Cocklebur plant response rating (cocklebur; 500 g ai/ha): 100
- Plant response rating, Cocklebur (cocklebur; [5]): 0
- Plant response rating, Crabgrass, Large (large crabgrass; [4]): 100
- Crabgrass, Large plant response rating (large crabgrass; 125 g ai/ha): 10
- Crabgrass, Large plant response rating (large crabgrass; 500 g ai/ha): 30
- Plant response rating, Crabgrass, Large (large crabgrass; [5]): 80
- Plant response rating, Foxtail, Giant (giant foxtail; [4]): 80
- Foxtail, Giant plant response rating (giant foxtail; 125 g ai/ha): 10
- Foxtail, Giant plant response rating (giant foxtail; 500 g ai/ha): 20
- Plant response rating, Foxtail, Giant (giant foxtail; [5]): 40
- Plant response rating, Lambsquarters (lambsquarters; [4]): 80
- Lambsquarters plant response rating (lambsquarters; 125 g ai/ha): 80
- Lambsquarters plant response rating (lambsquarters; 500 g ai/ha): 80
- Plant response rating, Lambsquarters (lambsquarters; [5]): 10
- Plant response rating, Morningglory (morningglory; [4]): 20
- Morningglory plant response rating (morningglory; 125 g ai/ha): 0
- Morningglory plant response rating (morningglory; 500 g ai/ha): 60
- Plant response rating, Morningglory (morningglory; [5]): 0
- Plant response rating, Pigweed (pigweed; [4]): 100
- Pigweed plant response rating (pigweed; 125 g ai/ha): 90
- Pigweed plant response rating (pigweed; 500 g ai/ha): 100
- Plant response rating, Pigweed (pigweed; [5]): 80
- Plant response rating, Velvetleaf (velvetleaf; [4]): 60
- Velvetleaf plant response rating (velvetleaf; 125 g ai/ha): 40
- Velvetleaf plant response rating (velvetleaf; 500 g ai/ha): 60
- Plant response rating, Velvetleaf (velvetleaf; [5]): 10
- Blackgrass plant response rating (blackgrass; 125 g ai/ha): 10
- Blackgrass plant response rating (blackgrass; 500 g ai/ha): 20
- Wheat plant response rating (wheat; 125 g ai/ha): 10
- Wheat plant response rating (wheat; 500 g ai/ha): 20
- Oat, Wild plant response rating (wild oat; 125 g ai/ha): 30
- Oat, Wild plant response rating (wild oat; 500 g ai/ha): 70
- Rice plant response rating (rice): 20
- Sedge, Umbrella plant response rating [2]: 90
- Barnyardgrass plant response rating (barnyardgrass [3]): 20

Structure (SMILES): CCn1nc(C(C)(C)C)cc1C(=O)Nc1cccc(OCCCF)c1 [Compound 138]
- Plant response rating, Barnyardgrass (barnyardgrass [1]; [4]): 70
- Barnyardgrass plant response rating (barnyardgrass [1]; 125 g ai/ha): 10
- Barnyardgrass plant response rating (barnyardgrass [1]; 500 g ai/ha): 20
- Plant response rating, Barnyardgrass (barnyardgrass [1]; [5]): 10
- Plant response rating, Surinam Grass (Surinam grass; [4]): 30
- Surinam Grass plant response rating (Surinam grass; 125 g ai/ha): 20
- Surinam Grass plant response rating (Surinam grass; 500 g ai/ha): 30
- Plant response rating, Surinam Grass (Surinam grass; [5]): 0
- Plant response rating, Cocklebur (cocklebur; [4]): 10
- Cocklebur plant response rating (cocklebur; 125 g ai/ha): 40
- Cocklebur plant response rating (cocklebur; 500 g ai/ha): 90
- Plant response rating, Cocklebur (cocklebur; [5]): 0
- Plant response rating, Crabgrass, Large (large crabgrass; [4]): 100
- Crabgrass, Large plant response rating (large crabgrass; 125 g ai/ha): 20
- Crabgrass, Large plant response rating (large crabgrass; 500 g ai/ha): 20
- Plant response rating, Crabgrass, Large (large crabgrass; [5]): 40
- Plant response rating, Foxtail, Giant (giant foxtail; [4]): 70
- Foxtail, Giant plant response rating (giant foxtail; 125 g ai/ha): 20
- Foxtail, Giant plant response rating (giant foxtail; 500 g ai/ha): 30
- Plant response rating, Foxtail, Giant (giant foxtail; [5]): 30
- Plant response rating, Lambsquarters (lambsquarters; [4]): 100
- Lambsquarters plant response rating (lambsquarters; 125 g ai/ha): 80
- Lambsquarters plant response rating (lambsquarters; 500 g ai/ha): 90
- Plant response rating, Lambsquarters (lambsquarters; [5]): 0
- Plant response rating, Morningglory (morningglory; [4]): 20
- Morningglory plant response rating (morningglory; 125 g ai/ha): 20
- Morningglory plant response rating (morningglory; 500 g ai/ha): 60
- Plant response rating, Morningglory (morningglory; [5]): 0
- Plant response rating, Pigweed (pigweed; [4]): 100
- Pigweed plant response rating (pigweed; 125 g ai/ha): 60
- Pigweed plant response rating (pigweed; 500 g ai/ha): 90
- Plant response rating, Pigweed (pigweed; [5]): 60
- Plant response rating, Velvetleaf (velvetleaf; [4]): 40
- Velvetleaf plant response rating (velvetleaf; 125 g ai/ha): 20
- Velvetleaf plant response rating (velvetleaf; 500 g ai/ha): 50
- Plant response rating, Velvetleaf (velvetleaf; [5]): 0
- Blackgrass plant response rating (blackgrass; 125 g ai/ha): 0
- Blackgrass plant response rating (blackgrass; 500 g ai/ha): 20
- Wheat plant response rating (wheat; 125 g ai/ha): 20
- Wheat plant response rating (wheat; 500 g ai/ha): 30
- Oat, Wild plant response rating (wild oat; 125 g ai/ha): 20
- Oat, Wild plant response rating (wild oat; 500 g ai/ha): 30
- Rice plant response rating (rice): 50
- Sedge, Umbrella plant response rating [2]: 80
- Barnyardgrass plant response rating (barnyardgrass [3]): 10
